Results reported in patent publication US8063225B2, “Tricyclic compound derivatives useful in the treatment of neoplastic diseases, inflammatory disorders and immunomodulatory disorders” (Chembridge Corporation, priority 2006, dated 2011).

Assays:
[1] = target: T1, IGF1R tyrosine kinase (Homo sapiens, UniProt P08069); test: IGF1R tyrosine kinase assay (Kinase-Glo ATP depletion or PT66/PT100 AlphaScreen); conditions: biochemical tyrosine kinase assay
T1 construct: 6×His- or GST-tagged kinase domain fragments of the corresponding RTKs expressed in baculovirus system; host or cells: baculovirus system
Experimental: (§1) To determine inhibition of several tyrosine kinases, such as IGF1R, InsR, Alk, TrkA and Jak2, kinase assays are conducted using either Kinase-Glo (Promega) or AlphaScreen (PerkinElmer) kinase assay platforms. The Kinase-Glo Luminescent Kinase Assay is a homogeneous method for measuring kinase activity by determining the amount of ATP remaining after a kinase reaction. The luminescent signal is proportional to the amount of ATP and inversely proportional to the amount of kinase activity. Tyrosine kinase PT66 AlphaScreen Assay is a high-sensitivity homogeneous, anti-phosphotyrosine antibody-mediated luminescent proximity method measuring, incorporation of phosphate in synthetic poly(Glu-Tyr) substrate. The kinase preparations used consist of purified recombinant, 6×His- or GST-tagged kinase domain fragments of the corresponding RTKs expressed in baculovirus system.
(§2) The IGF1R tyrosine kinase is assayed in Kinase-Glo ATP depletion assay using the synthetic polymer poly(Glu-Tyr, 4:1) (Sigma Chemicals) as a phosphoacceptor substrate. Each reaction mixture consists of a total volume of 10 μl and contains 40 ng of the enzyme, 5 μg of poly(Glu-Tyr), 10 μM of ATP and variable concentrations of test compounds. The mixtures also contain 50 mM Tris-HCl, pH 7.5; 5 mM MgCl2; 5 mM MnCl2; 2 mM DTT and 0.01% Tween 20. The reaction mixtures are incubated at 37° C. for 60 minutes and residual concentration of ATP in the mixture is determined by adding luciferase-containing Kinase-Glo (Promega) development reagent and counting luminescence levels using Fusion Universal Microplate Analyzer (PerkinElmer). Tested compounds are dissolved in dimethyl sulfoxide to a stock concentration of 10 mM and are typically evaluated in the assay at eight concentrations in 1 nM to 20 μM range, each in quadruplicate. […] IC50 values are derived by non-linear regression analysis using Prism 3.0 software (Graphpad Software). Other tyrosine kinases are assayed according to the same protocol after titrating amount of the enzyme to provide optimal signal-to-noise ratio and no more than 30% of total ATP consumption in the reaction conditions used.
(§3) The IGF1R tyrosine kinase is assayed in Phosphotyrosine (PT66 or PT 100) AlphaScreen chemiluminescent assay (PerkinElmer) according to the manufacturerer's recommendations. Each kinase reaction mixture consists of a total volume of 15 μl and contains 0.1-1 ng of the enzyme, 7 ng of biotinylated poly(Glu-Tyr) (Cis-Bio), 10 μM of ATP and variable concentrations of test compounds. The mixtures also contain 50 mM Tris-HCl, pH 7.5; 5 mM MgCl2; 5 mM MnCl2; 2 mM DTT and 0.01% Tween 20. The reaction mixtures are incubated at room temperature for 30 minutes. Ten (10) μl of the mixture of […] and donor beads (as supplied by the manufacturer) is then added to the reaction and the incubation is continued for an additional 60 minutes.

[2] = target: T2, InsR (Homo sapiens, UniProt P06213); test: Tyrosine kinase assay (Kinase-Glo or AlphaScreen), InsR; conditions: biochemical tyrosine kinase assay
T2 construct: 6×His- or GST-tagged kinase domain fragments of the corresponding RTKs expressed in baculovirus system; host or cells: baculovirus system
Experimental: as §1, §2, §3

[3] = target: T3, Alk (Homo sapiens, UniProt Q9UM73); test: Tyrosine kinase assay (Kinase-Glo or AlphaScreen), Alk; conditions: biochemical tyrosine kinase assay
T3 construct: 6×His- or GST-tagged kinase domain fragments of the corresponding RTKs expressed in baculovirus system; host or cells: baculovirus system
Experimental: as §1, §2, §3

[4] = target: T4, Jak2 (Homo sapiens, UniProt O60674); test: Tyrosine kinase assay (Kinase-Glo or AlphaScreen), Jak2; conditions: biochemical tyrosine kinase assay
T4 construct: 6×His- or GST-tagged kinase domain fragments of the corresponding RTKs expressed in baculovirus system; host or cells: baculovirus system
Experimental: as §1, §2, §3

[5] = system: Ba/F3; test: Cell proliferation inhibition, Cell Titer-Glo, Ba/F3; type: cell-based; conditions: Mus musculus, BaF3; cell proliferation assay, Ba/F3 cells
Text: (§4) IGF1R and other tyrosine kinase inhibitors can inhibit the proliferation of certain cancer cell lines indicating their possible therapeutic utility for treating the corresponding cancer types. Cancer cell lines of interest and control normal lines, including CHO, HEK293, BA/F3, COLO205, PC3, DU145, MCF7, Panc1, ACHN, Hep G2, H460, K562, TT, U87-MG, CAOV-3, SK-MEL5, Karpas 299 and human multiple myeloma cell lines H929, MM1s, MM1r, UTMC2, CPM2, KMS11, My5, KMS12PE, My7, JJN3, KMS18, U266, SKMM2, RPMI-8226 are plated in white, clear-bottomed 384-well cell culture plates at 2500-5000 cells per well and supplied with dilutions of tested compounds After a desired period of time (typically 3 days), the number of viable cells is quantitated by using Cell Titer-Glo Luminescent Cell Viability Assay (Promega), a cell proliferation assay system based on detection of total amount of ATP present as a measure of cell metabolic activity. The plated cells are mixed with the Cell Titer-Glo developing reagent and counted in a luminescence multiwell plate reader according to the standard manufacturer's protocol to generate IC50 curves for cell proliferation inhibition. Results are typically reported as percent of growth (% viability =(OD72h(compound)−ODday0))/(OD72h(no compound)−ODday0). Alternatively, viable cells are quantitated by using the conventional colorimetric MTT assay. The MTT assay is based on the cleavage of the yellow tetrazolium salt MTT to purple formazan crystal by metabolic active cells. The formazan is then solubilized, and the concentration determined by optical density at 570 nm. The cells plated and incubated with a compound as described above are supplemented with the solution of MTT and incubated for 2-3 hours. The growth medium is removed and dimethyl sulfoxide is added into each well to dissolve the formazan. The absorbance is measured on an ELISA plate reader with a test wavelength of 570 nm and a background subtraction wavelength of 630 nm to obtain sample signal (OD570-OD630). […] The results are reported in terms of IC50 value for a particular compound and a cell line in the standard 3-day proliferation assay using Cell Titer-Glo. […] The results are reported in terms of IC50 value for a particular compound and a cell line in the standard 3-day proliferation assay using MTT assay.

[6] = system: Karpas-299; test: Cell proliferation inhibition, Cell Titer-Glo, Karpas-299; type: cell-based; conditions: Homo sapiens; cell proliferation assay, Karpas-299 cells
Text: as §4

[7] = system: K562; test: Cell proliferation inhibition, Cell Titer-Glo, K562; type: cell-based; conditions: Homo sapiens; cell proliferation assay, K562 cells
Text: as §4

T3 sequence (Q9UM73 1116-1392 limits assumed, species assumed): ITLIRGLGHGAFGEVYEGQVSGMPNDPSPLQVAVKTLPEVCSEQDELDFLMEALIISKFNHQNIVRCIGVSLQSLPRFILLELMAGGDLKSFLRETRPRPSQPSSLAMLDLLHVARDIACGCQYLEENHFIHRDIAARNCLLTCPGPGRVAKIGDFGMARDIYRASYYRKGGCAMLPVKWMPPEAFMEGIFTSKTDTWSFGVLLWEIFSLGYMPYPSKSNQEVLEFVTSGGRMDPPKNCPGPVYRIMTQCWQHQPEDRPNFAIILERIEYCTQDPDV
T2 sequence (P06213 1023-1298 limits assumed, species assumed): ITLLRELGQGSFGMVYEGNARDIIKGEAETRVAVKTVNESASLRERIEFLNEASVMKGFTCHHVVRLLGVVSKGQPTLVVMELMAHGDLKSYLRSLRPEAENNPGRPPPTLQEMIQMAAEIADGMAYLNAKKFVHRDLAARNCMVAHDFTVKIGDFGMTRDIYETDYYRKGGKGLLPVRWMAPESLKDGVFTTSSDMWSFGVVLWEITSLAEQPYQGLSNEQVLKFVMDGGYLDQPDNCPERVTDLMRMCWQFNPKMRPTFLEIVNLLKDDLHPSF
T4 sequence (O60674 849-1124 limits assumed, species assumed): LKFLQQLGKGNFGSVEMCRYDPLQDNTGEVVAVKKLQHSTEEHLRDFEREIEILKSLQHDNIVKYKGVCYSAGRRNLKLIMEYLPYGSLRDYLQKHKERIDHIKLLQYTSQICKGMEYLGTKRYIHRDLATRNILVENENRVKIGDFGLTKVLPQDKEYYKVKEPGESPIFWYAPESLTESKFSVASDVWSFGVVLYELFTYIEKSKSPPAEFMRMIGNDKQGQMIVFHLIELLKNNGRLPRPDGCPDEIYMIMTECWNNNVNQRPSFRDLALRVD
T1 sequence (P08069 999-1274 limits assumed): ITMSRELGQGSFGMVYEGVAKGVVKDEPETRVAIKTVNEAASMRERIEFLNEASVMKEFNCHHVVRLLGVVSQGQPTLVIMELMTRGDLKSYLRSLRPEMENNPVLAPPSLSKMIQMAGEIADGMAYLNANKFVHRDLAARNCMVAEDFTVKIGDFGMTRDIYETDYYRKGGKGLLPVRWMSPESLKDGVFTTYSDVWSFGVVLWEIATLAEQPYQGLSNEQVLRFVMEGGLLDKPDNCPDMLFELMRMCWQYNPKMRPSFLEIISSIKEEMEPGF

SMILES	IC50 [1]	IC50 [2]	IC50 [3]	IC50 [4]	IC50 [5]	IC50 [6]	IC50 [7]
CN1CCC(N2C(=O)c3cc4nc(-c5c(NC[C@@H](O)COc6cccc(N7CCOCC7)c6)ccnc5O)[nH]c4cc3C2=O)CC1 [compound 53]	5 to 15 µM	5 to 15 µM	0.5 to 5 µM	0.5 to 5 µM	> 15 µM	> 15 µM	> 15 µM
CN1CCC(N2C(=O)c3cc4nc(-c5c(NC[C@@H](O)COc6cccc(C(F)(F)F)c6)ccnc5O)[nH]c4cc3C2=O)CC1 [compound 73]	0.5 to 5 µM	0.5 to 5 µM	5 to 15 µM	0.5 to 5 µM	> 15 µM	0.5 to 5 µM	0.5 to 5 µM
CN1CCC(N2C(=O)c3cc4nc(-c5c(NC[C@@H](O)COc6cccc7[nH]ccc67)ccnc5O)[nH]c4cc3C2=O)CC1 [compound 101]	< 0.5 µM	< 0.5 µM	< 0.5 µM	0.5 to 5 µM	> 15 µM	> 15 µM	> 15 µM
COc1ccc2c(c1)cc(C)n2C[C@H](O)CNc1ccnc(O)c1-c1nc2cc3c(cc2[nH]1)C(=O)N(C1CCN(C)CC1)C3=O [compound 100]	0.5 to 5 µM	0.5 to 5 µM	< 0.5 µM	0.5 to 5 µM	> 15 µM	5 to 15 µM	5 to 15 µM
Cc1ccc(OCC(O)CNc2cc[nH]c(=O)c2-c2nc3cc4c(cc3[nH]2)C(=O)N(C2CCN(C)CC2)C4=O)cc1C (stereo not drawn) [compound 104]	0.5 to 5 µM	< 0.5 µM	5 to 15 µM	5 to 15 µM	> 15 µM	> 15 µM	> 15 µM
CN1CCC(N2C(=O)c3cc4nc(-c5c(NC[C@@H](O)COc6cccc(C#N)c6)ccnc5O)[nH]c4cc3C2=O)CC1 [compound 52]	< 0.5 µM	0.5 to 5 µM	0.5 to 5 µM	0.5 to 5 µM	> 15 µM	> 15 µM	> 15 µM
Cc1ccc(OCC(O)CNc2ccnc(O)c2-c2nc3cc4c(cc3[nH]2)C(=O)N(CCCn2cccn2)C4=O)c(C)c1 (stereo not drawn) [compound 63]	> 15 µM	> 15 µM	0.5 to 5 µM	> 15 µM	> 15 µM	> 15 µM	> 15 µM
CCN(CC)C(=O)c1ccc(OC[C@H](O)CNc2ccnc(O)c2-c2nc3cc4c(cc3[nH]2)C(=O)N(C2CCN(C)CC2)C4=O)c(OC)c1 [compound 51]	> 15 µM	> 15 µM	> 15 µM	> 15 µM	> 15 µM	> 15 µM	> 15 µM
CN(C)CC(C)(C)CN1C(=O)c2cc3nc(-c4c(NCC(O)COc5cccc(Cl)c5)ccnc4O)[nH]c3cc2C1=O (stereo not drawn) [compound 61]	0.5 to 5 µM	5 to 15 µM	> 15 µM	5 to 15 µM	> 15 µM	> 15 µM	> 15 µM
CN1CCC(N2C(=O)c3cc4nc(-c5c(NC[C@@H](O)COc6ccc(F)c(Cl)c6)ccnc5O)[nH]c4cc3C2=O)CC1 [compound 74]	0.5 to 5 µM	0.5 to 5 µM	5 to 15 µM	0.5 to 5 µM	0.5 to 5 µM	0.5 to 5 µM	0.5 to 5 µM
COc1cc(F)ccc1OC[C@H](O)CNc1ccnc(O)c1-c1nc2cc3c(cc2[nH]1)C(=O)N(C1CCN(C)CC1)C3=O [compound 57]	0.5 to 5 µM	0.5 to 5 µM	0.5 to 5 µM	0.5 to 5 µM	0.5 to 5 µM	5 to 15 µM	5 to 15 µM
COc1cc(F)ccc1OC[C@@H](O)CNc1ccnc(O)c1-c1nc2cc3c(cc2[nH]1)C(=O)N(C1CCN(C)CC1)C3=O [compound 58]	0.5 to 5 µM	0.5 to 5 µM	0.5 to 5 µM	5 to 15 µM	5 to 15 µM	5 to 15 µM	5 to 15 µM
CN1CCC(N2C(=O)c3cc4nc(-c5c(NC[C@@H](O)COc6ccc7c(c6)OCO7)ccnc5O)[nH]c4cc3C2=O)CC1 [compound 78]	< 0.5 µM	0.5 to 5 µM	0.5 to 5 µM	0.5 to 5 µM	> 15 µM	5 to 15 µM	5 to 15 µM
CN1CCC(N2C(=O)c3cc4nc(-c5c(NC[C@@H](O)COc6cccc7c6OC(F)C(F)(F)O7)cc[nH]c5=O)[nH]c4cc3C2=O)CC1 (stereo partly drawn) [compound 82]	< 0.5 µM	0.5 to 5 µM	0.5 to 5 µM	0.5 to 5 µM	> 15 µM	> 15 µM	> 15 µM
COc1cc(C#N)ccc1OC[C@H](O)CNc1ccnc(O)c1-c1nc2cc3c(cc2[nH]1)C(=O)N(C1CCN(C)CC1)C3=O [compound 50]	0.5 to 5 µM	5 to 15 µM	5 to 15 µM	0.5 to 5 µM	> 15 µM	> 15 µM	> 15 µM
